Measured values as given in patent US20170296550A1, “ARYL SULTAM DERIVATIVES AS RORc MODULATORS” (Genentech, Inc., priority 2013, published 2017).

Target: T1, RORc (Homo sapiens, UniProt P51449)
T1 construct: host or cells: E. coli
T1 sequence (P51449 269-508 limits assumed): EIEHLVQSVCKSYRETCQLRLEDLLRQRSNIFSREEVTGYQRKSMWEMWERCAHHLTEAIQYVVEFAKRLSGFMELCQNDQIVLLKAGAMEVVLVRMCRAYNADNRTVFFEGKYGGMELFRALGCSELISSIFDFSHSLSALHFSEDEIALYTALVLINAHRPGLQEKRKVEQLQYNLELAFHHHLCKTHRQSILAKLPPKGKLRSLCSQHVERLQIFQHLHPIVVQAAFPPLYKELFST
Experiment: In Vitro RORc Ligand Binding Assay (25-[3H]hydroxycholesterol radioligand, filter plate)
Conditions: RORc ligand binding domain 0.6 ug/mL; 6 nM 25-[3H]hydroxycholesterol; 3 h at 25° C.
Protocol: Example 68 In Vitro RORc Ligand Binding Assay
This assay was used to determine a compound's potency in inhibiting activity of RORc by determining, Kiapp, IC50, or percent inhibition values.
On day of the assay, 100 uL of 0.05% CHAPS (in deionized H2O) was added to all wells of the GFB Unifilter plate and allowed soak for 1 h. A wash buffer of 50 mM HEPES (pH 7.4), 150 mM NaCl, and 5 mM MgCl2 was prepared to wash the filter plate. To prepare an assay buffer, BSA was added to the wash buffer to reach 0.01% and DTT was added to reach 1 mM.
For IC50 mode, 10 mM compound stocks were serially diluted in DMSO with DMSO to give 20× required final concentration in DMSO (15 uL compound+30 uL DMSO). The 20× compound stocks were diluted in DMSO with Assay Buffer 4-fold to reach 5× the final test concentration in 25% DMSO (10 uL compound+30 uL Assay Buffer). Solutions were mixed by aspiration several times with a pipette set on 50 uL volume. For the assay, 10 uL of 5× compound stock solutions in 25% DMSO were added to the assay plate in duplicate.
For two point screening, 10 mM stock compound solutions were diluted in DMSO to obtain 200 uM (20× the high test concentration) and then diluted 10-fold further to reach 20 uM (20× the low test concentration). The 20× stocks were diluted 4-fold with Assay Buffer (10 uL compound+30 uL Assay Buffer) to reach 5× the test concentrations (50 uM and 5 uM) and 10 uL were added to two assay plates for the duplicate wells. With each concentration tested on 2 plates, each set of 80 compounds used 4 assay plates (1 uM and 10 uM, with n=2).
25-hydroxycholesterol (1 uM) was used to determine the level of NSB signal is prepared in DMSO as for compounds above, then diluted in Assay Buffer to give a final concentration of 5 uM. For 25-hydroxycholesterol in 25% DMSO/75% Assay Buffer; 10 uL per well was used for NSB samples. Wells for Total Binding and No Receptor sample determination contained 10 uL of 25% DMSO/75% Assay Buffer per well.
Radioligand (25-[^3H]hydroxycholesterol) Preparation
25-[^3H]hydroxycholesterol was dilute in Assay Buffer to obtain 15 nM and vortex to mix. Add 20 uL to all wells to reach 6 nM final in the assay.
Stock receptor solution was diluted in assay buffer to obtain 1.5 ug/mL in Assay Buffer. 20 uL was added to all wells. For No R samples, 20 uL Assay Buffer was substituted for receptor solution.
Assay plates were 96-well polypropylene V-bottom plates. 10 uL of 5× compound in 25% DMSO/75% Assay Buffer was added to Test wells. 10 uL of 25% DMSO/75% Assay Buffer was added to Total Binding or No Receptor wells. 10 uL of 5 uM 25-hydroxycholesterol in 25% DMSO/75% Assay Buffer was added to NSB wells. 20 uL of 15 nM 25-[^3H]hydroxycholesterol prepared in Assay Buffer was added to all wells. 20 uL of 1.5 ug/mL RORc receptor was added to wells (or […] Assay Buffer to No R wells). Following addition to the wells, the plates were incubated 3 h at 25° C.
Using a Packard Filtermate Harvester, the filter plate were washed 4 times following transfer of the incubated samples. Plates were dry-filtered completely (2 h at 50° C. or overnight at room temperature). 50 uL Microscint 0 was added to all wells and read on Topcount protocol Inverted.
Final concentrations were as follows: 50 mM HEPES buffer (pH 7.4); 150 mM NaCl; 1 mM DTT; 5 mM MgCl2; 0.01% BSA; 5% DMSO; 0.6 ug/mL RORc receptor; 6 nM 25-[^3H]hydroxycholesterol. For NSB wells, 1 uM 25-hydroxycholesterol was also present.

| IC50 [µM] | SMILES |
| --- | --- |
| 4.98 | C[C@H]1CC[C@H](c2ccccc2)S(=O)(=O)N1Cc1ccc(C(=O)NCCCn2ccnc2)cc1 [Example 8, N-(3-Imidazol-1-yl-propyl)-4-((3S)-3-methyl-1,1-dioxo-6-phenyl-[1,2]thiazinan-2-ylmethyl)-benzamide] |
| 1.6 | CNC(=O)c1ccc(-c2ccc(CN3[C@@H](C)CCC(c4ccccc4)S3(=O)=O)c(F)c2)cn1 (stereo partly drawn) [Example 36, 5-[3-Fluoro-4-((3S)-3-methyl-1,1-dioxo-6-phenyl-[1,2]thiazinan-2-ylmethyl)-phenyl]-pyridine-2-carboxylic acid methylamide] |
